# Measured values taken from US20130273003A1, “Therapies for Treating Hepatitis C Virus Infection” (priority 2012, published 2013).
# Values joined by “and” are separate entries in the source; they are usually repeats but may differ in a detail not shown here. Equal values may be shown once.
# Tests used:
# [1] = Study VX-222-002: combination treatment with VX-222 and VX-950 in healthy subjects (PK, safety); conditions: Treatment Period 3: VX-222 and VX-950 simultaneously for 10 days, preliminary
# genotype 1 chronic HCV = assay: ZENITH Phase 2a study: VX-222 in combination with telaprevir (DUAL, QUAD)
# [2] = PK parameters of VX-222 in Study 101 Part C and Study 102 Part A; type: in vivo, human; conditions: 250 to 750 mg b.i.d.
# Description: In Part C of Study 101, VX-222 was administered as multiple doses of 750 mg b.i.d. to treatment-naïve subjects with chronic hepatitis C for 3 days. In addition, in Part A of Study 102, VX-222 was administered as multiple doses ranging from 250 mg to 750 mg BID and 1500 mg once a day to treatment-naïve subjects with chronic hepatitis C for 3 days. The PK parameters of VX-222 assessed in Study 101 (final data) and Study 102 (preliminary data) are outlined below: […]
# [3] = system: Huh-7, ET replicon cells (HCV replicon I389luc-ubi-neo/NS3-3'/5.1); assay: Drug combination luciferase assay (4-day, MacSynergy analysis); type: cell-based, Hepatitis C virus; conditions: combination with VX-950, 4 days
# Excerpt: Replicon cell lines Huh-7, ET cells derived from the Huh-7 hepatocarcinoma cell line are obtained from Dr. Ralf Bartenschlager (Bartenschlager, R. Innovation: Hepatitis C virus replicons: potential role for drug development. Nat. Rev. Drug Discov. 2002, 1, 911-916. Krieger, N.; Lohmann, V.; Bartenschlager, R. Enhancement of hepatitis C virus RNA replication by cell culture-adaptive mutations. J. Virol. 2001, 75, 4614-4624. Lohmann, V.; Korner, F.; Koch, J.-O.; Herian, U.; Theilmann, L.; Bartenschlager, R. Replication of subgenomic hepatitis C virus RNAs in a hepatoma cell line. Science. 1999, 285, 110-113.) (Reblikon GmbH, Gau-Odernheim, Germany). […]
# Huh-7, ET replicon cells are seeded in white opaque 96-well cell culture microtiter plates at sub-confluent density (3×10^3 cells per well) in a volume of 100 μL media. […] Plates are read for Luciferase counts using a luminometer (Wallac MicroBeta Trilux, Perkin Elmer™, MA, USA). […]
# genotype 1 HCV = assay: Study VX-222-102 Part A: HCV RNA analyses (viral load reduction); type: in vivo, Hepatitis C virus
# Description: (§1) In Part A of Study 102 subjects were randomized to VX-222 or placebo in a 6:2 (VX-222: placebo) allocation ratio to either Cohort 1, Cohort 2, Cohort 3, or Cohort 4. Subjects enrolled in Cohort 1, Cohort 2, and Cohort 3 were administered 250 mg, 500 mf, or 750 mg VX-222 or placebo twice daily (b.i.d.) for 3 days, respectively. Subjects enrolled in Cohort 4 were administered 1,500 mg VX-222 or placebo once daily (qd) for 3 days. Standard of care treatment, Peg-IFN-alpha-2a and RBV was offered to the subjects at the end of dosing in Part A for up to 48 weeks, if judged appropriate by the physician.
# Additional results of Study VX-222-102 are described in FIGS. 2-8: Thirty-two treatment-naïve patients with chronic genotype 1 HCV infection were enrolled in the trial, including six patients in each dose group who received 250 mg of VX-222 BID, 500 mg of VX-222 BID, 750 mg of VX-222 BID, and 1,500 mg of VX-222 QD. Two patients received placebo in each of the four dosing groups, for a total of eight patients who received placebo. Part A of the trial was conducted at 10 centers in the United States, Canada and Argentina. Of the patients enrolled in the trial, 24 patients had genotype 1a HCV infection and eight patients had genotype 1b HCV infection. Six of the patients enrolled in the trial were African American, 25 were Caucasian.
# (§2) Study Design a& Population Multicenter, randomized, double-blinded, placebo-controlled, dose-ranging study HCV genotype 1-infected patients With no evidence of cirrhosis ALT values<5×ULM Plasma HCV RNA of ≧5 log10 IU/mL at screening 4-arm comparative study (6:2 randomization VX-222: placebo) Enrollment in this dosing—ranging study was sequential 250 mg BID for 3 days 500 mg BID for 3 days 750 mg BID for 3 days 1500 mg QD for 3 days.
# [4] = Study VX-222-102 Part A: PK and safety of VX-222 in HCV infected subjects, 3 days; type: in vivo, human
# Description: as §1
# Subjects with genotype 1 chronic hepatitis C infection were exposed to multiple doses of VX-222 or placebo at 250 mg (Cohort 1), 500 mg (Cohort 2), or 750 mg (Cohort 3) b.i.d. for 3 days. […] The majority of the reported adverse events were mild in severity and there were no untoward adverse incidences or trends.
# as §2
# [5] = 500 mg b.i.d., Day 3, HCV infected subjects
smiles,measurement,setting,value
"CC1CCC(C(=O)N(c2cc(C#CC(C)(C)C)sc2C(=O)O)C2CCC(O)CC2)CC1 (stereo not drawn) [VX-222, 5-(3,3-Dimethylbut-1-ynyl)-3-[(trans-4-hydroxycyclohexyl)-(4-trans methylcyclohexanecarbonyl)amino]thiophene-2-carboxylic acid]",severe or SAEs,[1],no reported severe or SAEs
same,viral breakthrough rate,"genotype 1 chronic HCV; DUAL treatment arms (VX-222 with telaprevir alone), 2-sided 90% confidence interval",> 25%
same,patients eligible (undetectable HCV RNA at Weeks 2 and 8) to stop treatment after 12 weeks,"genotype 1 chronic HCV; higher VX-222 dose in the QUAD regimen (with telaprevir, peginterferon/ribavirin)",50%
same,dose proportionality of exposures,[2],increased in an approximately dose proportional manner
same,synergy class with VX-950 (MacSynergy),[3],Moderated synergy (50 uM^2%-100 uM^2%: Moderated synergy)
same,volume of synergy with VX-950 (MacSynergy),[3]; listed as 1,90 uM^2% and 86 uM^2%
same,"Viral Load Reduction at Day 4, Mean",genotype 1 HCV; 250 mg b.i.d. for 3 days,−3.1
same,"Viral Load Reduction at Day 4, Mean",genotype 1 HCV; 500 mg b.i.d. for 3 days,−3.4
same,"Viral Load Reduction at Day 4, Mean",genotype 1 HCV; 750 mg b.i.d. for 3 days,−3.2
same,AUC0-12 hr Geometric Mean,[4]; [5],29848 ng·h/mL
same,tmax Median,[4]; [5],2.5 h
same,most frequently reported adverse events (at least two patients per dose group),"[4]; blinded, pooled data for placebo or VX-222","diarrhea, headache, nausea, asthenia and fever"
same,tolerability,"[4]; blinded, pooled data for placebo or VX-222, four dose groups",well-tolerated across all four dose groups
